Test results published in paper PMC10035947, “Development of novel anilinoquinazoline-based carboxylic acids as non-classical carbonic anhydrase IX and XII inhibitors” (Journal of Enzyme Inhibition and Medicinal Chemistry, 2023).

Assays:
[1] = tested on: HCC-2998; test: NCI SRB assay; assay type: cell-based, human; conditions: for GI%: HCC-2998, 10 μM; for Growth Percent: HCC-2998, 1.00E-5 Molar
[2] = tested on: MALME-3M; test: NCI SRB assay; assay type: cell-based, human; conditions: for GI%: 10 μM; for Growth Percent: 1.00E-5 Molar
[3] = tested on: MDA-MB-435; test: NCI SRB assay; assay type: cell-based; conditions: for GI%: MDA-MB-435, 10 μM; for Growth Percent: MDA-MB-435, 1.00E-5 Molar
[4] = tested on: KM12; test: NCI SRB assay; assay type: cell-based, human; conditions: for GI%: KM12, 10 μM; for Growth Percent: KM12, 1.00E-5 Molar
[5] = tested on: 786-0; test: NCI SRB assay; assay type: cell-based, human; conditions: for GI%: 786-0, 10 μM; for Growth Percent: 786-0, 1.00E-5 Molar
[6] = biological target: T1, hCA II (Homo sapiens, UniProt P00918); test: stopped flow CO2 hydrase assay; assay type: biochemical; conditions: mean from 3 assays
T1 construct: made in house
How it was run: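 Stopped-flow CO2 hydration with phenol red (0.2 mM) at 557 nm in 20 mM Hepes pH 7.5, 20 mM Na2SO4, CO2 1.7–17 mM, recombinant enzyme. Inhibitor preincubated 15 min at room temperature; uncatalyzed rate subtracted, Ki via Cheng-Prusoff, mean of ≥3 determinations.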

[7] = tested on: U251; test: NCI SRB assay; assay type: cell-based, human; conditions: for GI%: U251, 10 μM; for Growth Percent: U251, 1.00E-5 Molar
[8] = tested on: OVCAR-8; test: NCI SRB assay; assay type: cell-based, human; conditions: for GI%: OVCAR-8, 10 μM; for Growth Percent: OVCAR-8, 1.00E-5 Molar
[9] = tested on: HS 578 T; test: NCI SRB assay; assay type: cell-based, human; conditions: for GI%: HS 578 T, 10 μM; for Growth Percent: HS 578T, 1.00E-5 Molar
[10] = tested on: SK-OV-3; test: NCI SRB assay; assay type: cell-based, human; conditions: for GI%: SK-OV-3, 10 μM; for Growth Percent: SK-OV-3, 1.00E-5 Molar
[11] = biological target: T2, hCA I (Homo sapiens, UniProt P00915); test: stopped flow CO2 hydrase assay; assay type: biochemical; conditions: mean from 3 assays
T2 construct: made in house
T2 sequence (P00915 whole entry): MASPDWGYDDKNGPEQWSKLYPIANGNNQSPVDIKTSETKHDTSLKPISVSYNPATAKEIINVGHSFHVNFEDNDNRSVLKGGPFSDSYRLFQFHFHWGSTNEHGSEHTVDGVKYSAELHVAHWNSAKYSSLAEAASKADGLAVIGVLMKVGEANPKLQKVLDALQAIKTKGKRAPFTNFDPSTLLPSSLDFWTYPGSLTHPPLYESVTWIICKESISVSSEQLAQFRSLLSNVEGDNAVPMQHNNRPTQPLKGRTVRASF
How it was run: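 Recombinant enzymes assayed by stopped-flow CO2 hydration using 0.2 mM phenol red at 557 nm in 20 mM Hepes pH 7.5 with 20 mM Na2SO4, CO2 1.7–17 mM. Inhibitor and enzyme preincubated 15 min at room temperature.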

[12] = tested on: EKVX; test: NCI SRB assay; assay type: cell-based, human; conditions: for GI%: 10 μM; for Growth Percent: 1.00E-5 Molar
[13] = tested on: A498; test: NCI SRB assay; assay type: cell-based, human; conditions: for GI%: A498, 10 μM; for Growth Percent: A498, 1.00E-5 Molar
[14] = tested on: SF-539; test: NCI SRB assay; assay type: cell-based, human; conditions: for GI%: SF-539, 10 μM; for Growth Percent: SF-539, 1.00E-5 Molar
[15] = tested on: SK-MEL-28; test: NCI SRB assay; assay type: cell-based, human; conditions: for GI%: SK-MEL-28, 10 μM; for Growth Percent: SK-MEL-28, 1.00E-5 Molar
[16] = tested on: UACC-62; test: NCI SRB assay; assay type: cell-based, human; conditions: for GI%: UACC-62, 10 μM; for Growth Percent: UACC-62, 1.00E-5 Molar
[17] = tested on: SK-MEL-5; test: NCI SRB assay; assay type: cell-based, human; conditions: for GI%: SK-MEL-5, 10 μM; for Growth Percent: SK-MEL-5, 1.00E-5 Molar
[18] = tested on: HOP-62; test: NCI SRB assay; assay type: cell-based, human; conditions: for GI%: HOP-62, 10 μM; for Growth Percent: HOP-62, 1.00E-5 Molar
[19] = tested on: SNB-19; test: NCI SRB assay; assay type: cell-based, human; conditions: for GI%: SNB-19, 10 μM; for Growth Percent: SNB-19, 1.00E-5 Molar
[20] = tested on: SK-MEL-2; test: NCI SRB assay; assay type: cell-based, human; conditions: for GI%: SK-MEL-2, 10 μM; for Growth Percent: SK-MEL-2, 1.00E-5 Molar
[21] = tested on: MOLT-4; test: NCI SRB assay; assay type: cell-based, human; conditions: for GI%: MOLT-4, 10 μM; for Growth Percent: MOLT-4, 1.00E-5 Molar
[22] = tested on: OVCAR-5; test: NCI SRB assay; assay type: cell-based, human; conditions: for GI%: OVCAR-5, 10 μM; for Growth Percent: OVCAR-5, 1.00E-5 Molar
[23] = tested on: HT29; test: NCI SRB assay; assay type: cell-based, human; conditions: for GI%: HT29, 10 μM; for Growth Percent: HT29, 1.00E-5 Molar

COc1ccc(-c2nc(Nc3ccccc3C(=O)O)c3ccccc3n2)cc1 [6c, 2-((2–(4-Methoxyphenyl)quinazolin-4-yl)amino)benzoic acid]
GI% [1]: 38%
Growth Percent [1]: 62.09%
GI% [2]: 31%
Growth Percent [2]: 68.60%
GI% [3]: 44%
Growth Percent [3]: 56.03%
GI% [4]: 64%
Growth Percent [4]: 35.66%
GI% [5]: 48%
Growth Percent [5]: 51.90%
Ki [6]: 83.1 µM
GI% [7]: 66%
Growth Percent [7]: 34.16%
GI% [8]: 40%
Growth Percent [8]: 60.14%
GI% [9]: 72%
Growth Percent [9]: 28.05%
GI% [10]: 53%
Growth Percent [10]: 47.19%
Ki [11]: > 100 µM
GI% [12]: 66%
Growth Percent [12]: 33.92%
GI% [13]: 41%
Growth Percent [13]: 58.92%
GI% [14]: 37%
Growth Percent [14]: 63.06%
GI% [15]: 35%
Growth Percent [15]: 65.22%
GI% [16]: 44%
Growth Percent [16]: 55.88%
GI% [17]: 70%
Growth Percent [17]: 30.49%
GI% [18]: 49%
Growth Percent [18]: 51.05%
GI% [19]: 55%
Growth Percent [19]: 45.59%
GI% [20]: 57%
Growth Percent [20]: 43.49%
GI% [21]: 64%
Growth Percent [21]: 36.24%
GI% [22]: 27%
Growth Percent [22]: 73.07%
GI% [23]: 37%
Growth Percent [23]: 63.13%

Cc1ccc(-c2nc(Nc3ccc(C(=O)O)cc3)c3ccccc3n2)cc1 [8b, 4-((2-(p-Tolyl)quinazolin-4-yl)amino)benzoic acid]
GI% [1]: 28%
Growth Percent [1]: 72.45%
GI% [2]: – (Only GI% higher than 20% are shown)
Growth Percent [2]: 101.05%
GI% [3]: – (Only GI% higher than 20% are shown)
Growth Percent [3]: 100.06%
GI% [4]: 42%
Growth Percent [4]: 57.97%
GI% [5]: – (Only GI% higher than 20% are shown)
Growth Percent [5]: 85.63%
Ki [6]: 3.9 µM
GI% [7]: – (Only GI% higher than 20% are shown)
Growth Percent [7]: 86.94%
GI% [8]: – (Only GI% higher than 20% are shown)
Growth Percent [8]: 81.90%
GI% [9]: 32%
Growth Percent [9]: 67.76%
GI% [10]: – (Only GI% higher than 20% are shown)
Growth Percent [10]: 99.63%
Ki [11]: 73.2 µM
GI% [12]: 28%
Growth Percent [12]: 72.41%
GI% [13]: – (Only GI% higher than 20% are shown)
Growth Percent [13]: 112.03%
GI% [14]: 21%
Growth Percent [14]: 78.63%
GI% [15]: – (Only GI% higher than 20% are shown)
Growth Percent [15]: 84.51%
GI% [16]: – (Only GI% higher than 20% are shown)
Growth Percent [16]: 95.83%
GI% [17]: 28%
Growth Percent [17]: 71.66%
GI% [18]: – (Only GI% higher than 20% are shown)
Growth Percent [18]: 88.98%
GI% [19]: 29%
Growth Percent [19]: 70.92%
GI% [20]: – (Only GI% higher than 20% are shown)
Growth Percent [20]: 113.45%
GI% [21]: 24%
Growth Percent [21]: 76.42%
GI% [22]: – (Only GI% higher than 20% are shown)
Growth Percent [22]: 95.98%
GI% [23]: – (Only GI% higher than 20% are shown)
Growth Percent [23]: 87.37%

Cc1ccc(-c2nc(Nc3cccc(C(=O)O)c3)c3ccccc3n2)cc1 [7b, 3-((2-(p-Tolyl)quinazolin-4-yl)amino)benzoic acid]
GI% [1]: – (Only GI% higher than 20% are shown)
Growth Percent [1]: 94.40%
GI% [2]: – (Only GI% higher than 20% are shown)
Growth Percent [2]: 96.44%
GI% [3]: – (Only GI% higher than 20% are shown)
Growth Percent [3]: 100.82%
GI% [4]: 32%
Growth Percent [4]: 68.03%
GI% [5]: 24%
Growth Percent [5]: 76.25%
Ki [6]: 41.7 µM
GI% [7]: 21%
Growth Percent [7]: 78.70%
GI% [8]: – (Only GI% higher than 20% are shown)
Growth Percent [8]: 91.56%
GI% [9]: 34%
Growth Percent [9]: 65.83%
GI% [10]: – (Only GI% higher than 20% are shown)
Growth Percent [10]: 89.56%
Ki [11]: > 100 µM
GI% [12]: 41%
Growth Percent [12]: 58.70%
GI% [13]: – (Only GI% higher than 20% are shown)
Growth Percent [13]: 95.15%
GI% [14]: 27%
Growth Percent [14]: 73.18%
GI% [15]: – (Only GI% higher than 20% are shown)
Growth Percent [15]: 97.02%
GI% [16]: – (Only GI% higher than 20% are shown)
Growth Percent [16]: 87.74%
GI% [17]: – (Only GI% higher than 20% are shown)
Growth Percent [17]: 85.67%
GI% [18]: – (Only GI% higher than 20% are shown)
Growth Percent [18]: 84.19%
GI% [19]: 28%
Growth Percent [19]: 71.76%
GI% [20]: – (Only GI% higher than 20% are shown)
Growth Percent [20]: 112.04%
GI% [21]: – (Only GI% higher than 20% are shown)
Growth Percent [21]: 89.24%
GI% [22]: – (Only GI% higher than 20% are shown)
Growth Percent [22]: 107.97%
GI% [23]: – (Only GI% higher than 20% are shown)
Growth Percent [23]: 105.90%

Cc1cccc(-c2nc(Nc3ccc(C(=O)O)cc3)c3ccccc3n2)c1 [8a, 4-((2-(m-Tolyl)quinazolin-4-yl)amino)benzoic acid]
GI% [1]: 24%
Growth Percent [1]: 75.96%
GI% [2]: – (Only GI% higher than 20% are shown)
Growth Percent [2]: 110.61%
GI% [3]: – (Only GI% higher than 20% are shown)
Growth Percent [3]: 96.58%
GI% [4]: 23%
Growth Percent [4]: 76.63%
GI% [5]: 29%
Growth Percent [5]: 70.77%
Ki [6]: 9.3 µM
GI% [7]: 27%
Growth Percent [7]: 72.61%
GI% [8]: – (Only GI% higher than 20% are shown)
Growth Percent [8]: 82.44%
GI% [9]: 48%
Growth Percent [9]: 51.51%
GI% [10]: – (Only GI% higher than 20% are shown)
Growth Percent [10]: 108.70%
Ki [11]: 87.7 µM
GI% [12]: – (Only GI% higher than 20% are shown)
Growth Percent [12]: 82.93%
GI% [13]: 54%
Growth Percent [13]: 45.68%
GI% [14]: – (Only GI% higher than 20% are shown)
Growth Percent [14]: 91.50%
GI% [15]: – (Only GI% higher than 20% are shown)
Growth Percent [15]: 96.84%
GI% [16]: – (Only GI% higher than 20% are shown)
Growth Percent [16]: 104.52%
GI% [17]: 29%
Growth Percent [17]: 71.03%
GI% [18]: – (Only GI% higher than 20% are shown)
Growth Percent [18]: 95.14%
GI% [19]: 33%
Growth Percent [19]: 67.24%
GI% [20]: – (Only GI% higher than 20% are shown)
Growth Percent [20]: 123.11%
GI% [21]: 22%
Growth Percent [21]: 78.39%
GI% [22]: – (Only GI% higher than 20% are shown)
Growth Percent [22]: 133.93%
GI% [23]: – (Only GI% higher than 20% are shown)
Growth Percent [23]: 91.72%
